Laboratory results from PubChem BioAssay (NCI).
Values joined by “and” are separate entries in the source; they are usually repeats but may differ in a detail not shown here. Identical values can stand only once.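 Test compounds were applied to cells in 96-well plates for 48 hours at 5 doses. At the GI50, growth is halved. At the TGI there is no net growth.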

Assays:
Assay in all cases: NCI tumour cell line growth inhibition, 48 h
786-0 renal = tested on: 786-0 renal
ACHN renal = tested on: ACHN renal
HOP-62 NSCLC = tested on: HOP-62 NSCLC
MDA-MB-435 = tested on: MDA-MB-435
MOLT-4 leukemia = tested on: MOLT-4 leukemia
OVCAR-3 ovarian = tested on: OVCAR-3 ovarian
OVCAR-4 ovarian = tested on: OVCAR-4 ovarian
PC-3 prostate = tested on: PC-3 prostate
SF-295 CNS = tested on: SF-295 CNS
UACC-257 melanoma = tested on: UACC-257 melanoma

SMILES	GI50 (786-0 renal)	TGI (786-0 renal)	GI50 (ACHN renal)	TGI (ACHN renal)	GI50 (HOP-62 NSCLC)	TGI (HOP-62 NSCLC)	GI50 (MDA-MB-435)	TGI (MDA-MB-435)	GI50 (MOLT-4 leukemia)	TGI (MOLT-4 leukemia)	GI50 (OVCAR-3 ovarian)	TGI (OVCAR-3 ovarian)	GI50 (OVCAR-4 ovarian)	TGI (OVCAR-4 ovarian)	GI50 (PC-3 prostate)	TGI (PC-3 prostate)	GI50 (SF-295 CNS)	TGI (SF-295 CNS)	GI50 (UACC-257 melanoma)	TGI (UACC-257 melanoma)
COc1ccc(-c2nn(-c3cccc(Cl)c3)cc2-c2c(C#N)c(=O)n3[nH]c(-c4ccc(C)o4)nc3c2C#N)cc1	9.42 µM	> 50 µM	7.61 µM	> 50 µM	14.1 µM	> 50 µM	4.44 µM	30.1 µM	3.23 µM	24.3 µM	5.68 µM	19 µM	6.59 µM	> 50 µM	2.25 µM	> 50 µM	3.46 µM	> 50 µM	8.45 µM	> 50 µM
COc1cc(C(=O)/C=C/c2c(C)n([O-])c3ccc(Cl)cc3[n+]2=O)cc(OC)c1OC	13.2 µM	92.4 µM	4.37 µM	18 µM	21.6 µM	71 µM	3.4 µM	> 100 µM	3.06 µM	27.9 µM	1.76 µM	7.98 µM	9.29 µM	> 100 µM	26.9 µM	> 100 µM	99.4 µM	> 100 µM	19.5 µM	> 100 µM
COc1ccc(-c2nc3sccn3c2/C=C/C(=O)c2cc(OC)c(OC)c(OC)c2)cc1	3.7 µM	> 100 µM	3.45 µM	> 60.9 µM	2.53 µM	> 25.7 µM	2.85 µM	> 100 µM	2.24 µM	23.7 µM	2.34 µM	7.37 µM	3.21 µM	> 100 µM	2.97 µM	> 38.7 µM	2.91 µM	18.3 µM	15.2 µM	78.7 µM
Clc1cc(Cl)cc(Nc2ccc3c(OCCCN4CCOCC4)cccc3n2)c1	1.69 µM	3.22 µM	3.02 µM	10.3 µM	2.29 µM	7.03 µM	1.8 µM	3.71 µM	2.25 µM	5.61 µM	2.92 µM	9.63 µM	10.3 µM	22.2 µM	1.94 µM	4.69 µM	1.92 µM	4.06 µM	2.05 µM	4.31 µM
COc1cc(/C=C/C(=O)/C=C/c2ccc(-n3ccnc3)cc2)ccc1O	2.01 µM	4.85 µM	3.27 µM	12.6 µM	3.12 µM	11.8 µM	2.21 µM	5.14 µM	3.22 µM	42.8 µM	3.14 µM	10 µM	8.38 µM	35.5 µM	2.19 µM	5.4 µM	14 µM	33 µM	3.21 µM	11.5 µM
O=C(/C=C/c1ccccn1)c1ccccc1	2.84 µM	10.7 µM	2.44 µM	6.2 µM	10.2 µM	22 µM	7.85 µM	24.9 µM	3.1 µM	27.6 µM	9.5 µM	21.4 µM	5.06 µM	18.3 µM	4.22 µM	17 µM	15.7 µM	32.2 µM	2.68 µM	9.25 µM
c1ccc(-c2nc3ccccc3[nH]2)c(OCCCCCOc2ccccc2-c2nc3ccccc3[nH]2)c1	15.9 µM	35.3 µM	13.1 µM	26.9 µM	22.1 µM	52.5 µM	11.3 µM	29.3 µM	5.58 µM	47.5 µM	12 µM	24.7 µM	2.92 µM	8.97 µM	7.64 µM	96.8 µM	15.3 µM	41.2 µM	17.9 µM	65.3 µM
COc1cc2c(cc1OC)C(Sc1ccc(Cl)cc1)c1c(nc(N)c(C#N)c1N)O2 (configuration not stated)	1.37 µM	2.7 µM	1.59 µM	2.95 µM	1.53 µM	2.88 µM	1.42 µM	2.85 µM	0.917 µM	4.89 µM	1.27 µM	2.56 µM	1.53 µM	2.96 µM	1.56 µM	3.07 µM	1.83 µM	3.31 µM	1.58 µM	2.96 µM
COc1ccc([C@H]2c3[nH]c4ccccc4c3C[C@H]3C(=O)N(CCCCCCC(=O)NO)CC(=O)N23)cc1	11 µM	> 33.3 µM	1.92 µM	12.8 µM	2.45 µM	> 33.3 µM	3.32 µM	15.1 µM	1.11 µM	> 33.3 µM	1.88 µM	17.4 µM	12.4 µM	> 33.3 µM	2.42 µM	> 33.3 µM	1.91 µM	12.4 µM	1.12 µM	> 33.3 µM
CN1CCC(C(=O)Nc2n[nH]c3nnc(-c4ccccc4)cc23)CC1	> 25 µM	> 25 µM	> 25 µM	> 25 µM	> 25 µM	> 25 µM	> 25 µM	> 25 µM	> 25 µM	> 25 µM	10.1 µM	> 25 µM	> 25 µM	> 25 µM	> 22.7 µM	> 25 µM	17.5 µM	> 25 µM	> 25 µM	> 25 µM
O=[N+]([O-])/C(=C/C=C/c1ccccc1)c1ccccc1	1.81 µM	3.4 µM	2.14 µM	5 µM	7.29 µM	21.4 µM	2.12 µM	4.92 µM	1.47 µM	3.61 µM	1.85 µM	3.29 µM	2.47 µM	7.22 µM	1.88 µM	4.29 µM	2.56 µM	9.08 µM	2.74 µM	9.32 µM
COC(=O)c1sc(=S)c2sc(C(=O)OC)c(C(=O)OC)c2c1C(=O)OC	89.4 µM	> 100 µM	40.3 µM	> 100 µM	59.7 µM	> 100 µM	51.3 µM	> 100 µM	36.9 µM	> 100 µM	35.5 µM	> 100 µM	82.2 µM	> 100 µM	37.2 µM	> 100 µM	39.3 µM	> 100 µM	26.8 µM	92 µM
CCCCCCCC(=O)OC[n+]1cccc(-c2c(COC(=O)NC(C)C)c(COC(=O)NC(C)C)c3n2CCC3)c1	–	> 100 µM	–	> 100 µM	–	> 100 µM	–	> 100 µM	–	99.4 µM	–	> 100 µM	–	> 100 µM	–	> 100 µM	–	> 100 µM	–	> 100 µM
Nc1nc2c(ncn2C2OC(CO)C(O)C2O)c(=O)[nH]1 (configuration not stated)	> 100 µM	> 100 µM	> 100 µM	> 100 µM	–	211 µM	> 100 µM	> 100 µM	35.7 µM	> 100 µM and 121 µM	–	235 µM	> 100 µM	> 100 µM and 215 µM	> 100 µM	> 100 µM	–	> 100 µM and 184 µM	> 100 µM and 20.8 µM	> 100 µM and 282 µM
CC(=O)OCCc1cc2ccccc2oc1=O	–	> 100 µM	–	> 100 µM	–	> 100 µM	–	> 100 µM	–	> 100 µM	–	> 100 µM	–	> 100 µM	–	> 100 µM	–	> 100 µM	–	> 100 µM
